Results published in patent US5238964A, “Agent for treatment of cerebrovascular contraction” (Torii & Co., Ltd., priority 1990, dated 1993).

Experiments:
[1] = experimental subarachnoid bleeding in rabbits, basal arteria thickness ratio; assay type: in vivo, rabbit; conditions: for suppression of cerebrovascular contraction subsequent to subarachnoid bleeding: rabbits, i.v.; for Basal arteria thickness ratio: after vs before subarachnoid bleeding
Method: By injecting previously collected blood into the postcisterna of a rabbit, subarachnoid bleeding similar to human subarachnoid bleeding can be produced experimentally in the rabbit. The therapeutic effect of a pharmaceutical composition for treating cerebrovascular contraction is judged by comparing the thickness of the basal arteria before and after the experimental production of subarachnoid bleeding.
Subarachnoid bleeding was produced experimentally in rabbits, and 20 minutes thereafter 3 mg, 6 mg and 9 mg of 6-amidino-2-naphthyl p-guanidinobenzoate dimethanesulfonate [drawing 12] were respectively administered intravenously to the rabbits.

[2] = intermittent intravenous administration to subarachnoid bleeding patients after acute phase operation (DIND, CT low, Angiographic Spasm Scale, Glasgow Outcome Scale); assay type: in vivo, human (patients); conditions: for CT low due to spasm: control 43%; for good recovery (Glasgow Outcome Scale) / vegetative survival+death (Glasgow Outcome Scale): control 36%
Method: We have tried intermittent intravenous administration of FUT-175 (nafamostat mesilate, the present compound) for the purpose of prevention and/or treatment of cerebrovascular contraction after acute phase operation on subarachnoid bleeding patients. A dosage of 40-160 mg/day was chosen by converting the amount of drug per kg rabbit weight to amount of drug per kg of human weight.
The subjects were the ruptured cerebral aneurysm patients who had acute phase operation and belonged to Group 3 or 4 in Fisher's preoperative CT classification (Fisher, C. M., et al., "Cerebral vasospasm with ruptured saccular aneurysm-Clinical manifestations" (1977), Neurosurgery, volume 1, pages 245-248). […] Also, the subjects were limited to the cases of Grades II-IV in Hunt and Hess gravity grating without modification by previous history and to the patients to whom administration could be started within 48 hours after crisis (Hunt, W. E., et al., "Surgical risk as related to time of intervention in the repair of intracranial aneurysms" (1968), J. Neurosurg., volume 28, pages 14-20).
The compound was given to the subjects by intermittent intravenous administration starting immediately after operation. In Group A, the compound was administered twice a day, 20 mg per administration (40 mg in total daily dosage) for 4 days; four times a day, 20 mg per administration (80 mg in total daily dosage) for 4 days in Group B; and four times a day, 40 mg per administration (160 mg in total daily dosage) for 4 days in Group C. Each dose of the compound was dissolved in 100 ml of physiological saline. Time of one intravenous administration was normally 2 hours.
The control cases were the serious subarachnoid bleeding patients after acute phase clipping operation performed in our clinic in 1989. Both groups were substantially commensurate with each other in gravity grating and CT classification (Fisher classification by computed tomography), but in the control group there were slightly more cases of mycotic cerebral aneurysm than in the treated group.
There was no difference between the control and treated groups in substances of treatment excepting administration of the present compound and in operating staff. The effect of the treatment was judged by occurrence or non-occurrence of delayed ischemic neurological deficit (DIND), low-density CT area due to vasospasm and caliber change in arteries as observed by cerebral angiography conducted in the period from day 5 to day 8 (post occurrence of cerebrovascular contraction) which is considered the peak period of development of vasospasm.
For judgement of spasm in the control group, an Angiographic Spasm Scale (ASS) of the following grading was prepared:
Grade 0 (none): No caliber change in any arteries,
Grade 1 (mild): Vascular contraction is localized,
Grade 2 (moderate): Multisegmental vascular contraction is observed, and
Grade 3 (severe): Severe contraction exceeding 50% is seen in multisegmental sites (Weir, B., et al., "Time course of vasospasm in man" (1978), J. Neurosurg., volume 48, pages 173-178; Kim, H., et al., "Time course of vasospasm--Its clinical significance" (1979), Neuro. Med. Chir. (Tokyo), volume 19, pages 95-102).
The Glasgow Outcome Scale (GOS) was used to evaluate the outcome one month after crisis. According to GOS, there are five degrees: 1-death, 2-vegetative state, 3-severe disability, 4-moderate disability, 5-good recovery.

[3] = tested on: circulating blood coagulating action; experiment: bleeding and coagulation times measured during intravenous administration in treated groups B and C; assay type: in vivo, human (patients)
Source text: The present compound is a serine protease inhibitor which can inhibit various kinds of serine protease including C 1r, C 1s, factor B and factor D of complement system, factor XIIa, factor Xa and thrombin of coagulation system, plasma kallikrein of quinine system, plasmin of fibrinolytic system, trypsin, etc. […] It was considered that the administration method employed in this experiment would give no influence on circulating blood coagulating action of the compound.

platelet agglutination = conditions: cited from earlier work
C 1r = conditions: complement system; cited from earlier work
C 1s = conditions: complement system; cited from earlier work
[4] = tested on: factor B of complement system; conditions: cited from earlier work
[5] = tested on: factor D of complement system; conditions: cited from earlier work
factor XIIa = conditions: coagulation system; cited from earlier work
factor Xa = conditions: coagulation system; cited from earlier work
thrombin = conditions: coagulation system; cited from earlier work
plasma kallikrein = conditions: quinine system; cited from earlier work
plasmin = conditions: fibrinolytic system; cited from earlier work
trypsin = conditions: cited from earlier work
[6] = cited from earlier work
[7] = Groups A, B and C, one month after crisis
[8] = Groups B and C (higher dosage), one month after crisis
[9] = after serious subarachnoid bleeding

CS(=O)(=O)O.N=C(N)Nc1ccc(C(=O)Oc2ccc(SCCN3C(=O)CCC3=O)cc2)cc1 [4-(2-succinimidoethylthio)phenyl 4-guanidinobenzoate methanesulfonate]
suppression of cerebrovascular contraction subsequent to subarachnoid bleeding [1]: clearly suppressed the cerebrovascular contraction subsequent to subarachnoid bleeding, showing the same effect as that of the compound used in Example 1

CS(=O)(=O)O.CS(=O)(=O)O.N=C(N)Nc1ccc(C(=O)Oc2ccc3cc(C(=N)N)ccc3c2)cc1 [6-amidino-2-naphthyl p-guanidinobenzoate dimethanesulfonate]
Basal arteria thickness ratio ([1]; 3 mg/kg i.v., 1st day): 86%
Basal arteria thickness ratio ([1]; 3 mg/kg i.v., 2nd day): 79%
Basal arteria thickness ratio ([1]; 3 mg/kg i.v., 3rd day): 85%
Basal arteria thickness ratio ([1]; 3 mg/kg i.v., 4th day): 88%
Basal arteria thickness ratio ([1]; 3 mg/kg i.v., 5th day): 90%
Basal arteria thickness ratio ([1]; 6 mg/kg i.v., 1st day): 97%
Basal arteria thickness ratio ([1]; 6 mg/kg i.v., 2nd day): 95%
Basal arteria thickness ratio ([1]; 6 mg/kg i.v., 3rd day): 95%
Basal arteria thickness ratio ([1]; 6 mg/kg i.v., 4th day): 96%
Basal arteria thickness ratio ([1]; 6 mg/kg i.v., 5th day): 101%
suppression of cerebrovascular contraction subsequent to subarachnoid bleeding [1]: clearly suppressed the cerebrovascular contraction
CT-low attributable to DIND ([2]; Group A, 40 mg/day for 4 days): 2 out of 9
cases at grade 1 of ASS ([2]; Group A, 40 mg/day for 4 days): 3 cases
cases at grade 2 of ASS ([2]; Group A, 40 mg/day for 4 days): 3 cases
cases at grade 3 of ASS ([2]; Group A, 40 mg/day for 4 days): 3 cases
incidence of DIND ([2]; Group A, 40 mg/day for 4 days): 2 out of 9
cases at grade 0 (no caliber change in any arteries) ([2]; Group B, 80 mg/day for 4 days): 4 cases
cases at grade 1 of ASS ([2]; Group B, 80 mg/day for 4 days): 3 cases
cases at grade 3 of ASS ([2]; Group B, 80 mg/day for 4 days): one
incidence of DIND ([2]; Group B, 80 mg/day for 4 days): one out of 9
low density area on CT scan ([2]; Group B, 80 mg/day for 4 days): no case
incidence of DIND ([2]; Group C, 160 mg/day for 4 days): no case
good in GOS (Glasgow Outcome Scale) ([2]; Group C, 160 mg/day for 4 days, one month after crisis): 4 out of 5
subjects with no change or mild degree of contraction (angiographic spasm grading) ([2]; Groups A, B and C): 64%
ASS Grade 3 (severe) ([2]; Groups A, B and C combined): 18%
CT low due to spasm ([2]; Groups A, B and C): 9%
incidence of DIND ([2]; Groups A, B and C, control 55%): 13%
good recovery (Glasgow Outcome Scale) [2, 7]: 65%
vegetative survival+death (Glasgow Outcome Scale) [2, 7]: 9%
ASS Grade 3 (severe) ([2]; Groups B and C (higher dosage)): 8%
subjects mild or none in degree of contraction (angiographic spasm grading) ([2]; Groups B and C (higher dosage)): 85%
CT low due to spasm ([2]; Groups B and C (higher dosage)): 0%
incidence of DIND ([2]; Groups B and C (higher dosage), control 55%): 7%
good recovery (Glasgow Outcome Scale) [2, 8]: 71%
vegetative survival+death (Glasgow Outcome Scale) [2, 8]: 0%
inhibition of incidence of delayed ischemic neurological deficit [2, 9]: could inhibit incidence of delayed ischemic neurological deficit
prognosis of the patient [2, 9]: improve the prognosis of the patient
activated partial thromboplastin time (APTT) [3]: in the normal ranges
bleeding time [3]: in the normal ranges
coagulation time [3]: in the normal ranges
prothrombin time (PT) [3]: in the normal ranges
platelet agglutination inhibiting action (platelet agglutination): concentration dependent platelet agglutination inhibiting action
inhibition of C 1r (C 1r): can inhibit
inhibition of C 1s (C 1s): can inhibit
inhibition of factor B [4]: can inhibit
inhibition of factor D [5]: can inhibit
inhibition of factor XIIa (factor XIIa): can inhibit
inhibition of factor Xa (factor Xa): can inhibit
inhibition of thrombin (thrombin): can inhibit
inhibition of plasma kallikrein (plasma kallikrein): can inhibit
inhibition of plasmin (plasmin): can inhibit
inhibition of trypsin (trypsin): can inhibit
passage into tissue ([6]; in vivo): quickly passes into tissue
half-life period in blood, α phase ([6]; α phase): 1.1 min
half-life period in blood, β phase ([6]; β phase): 23.1 min
